Measured values: patent US10722501B2 (BAYER AKTIENGESELLSCHAFT, priority 2016, dated 2020)

What follows are compounds tested against T1, recombinant full-length human prolyl endopeptidase (PREP) (Homo sapiens, UniProt P48147) (assay: Biochemical human prolyl endopeptidase (PREP) assay with fluorescently labelled substrate). Settings: substrate Z-Gly-Pro-AMC 50 μM, 32° C., 60 min; some as mean values from multiple independent determinations.
T1 construct: To recombinant full-length human prolyl endopeptidase (PREP, R&D-Systems, 4308-SE); purchased R&D-Systems 4308-SE
T1 sequence (P48147 1-710): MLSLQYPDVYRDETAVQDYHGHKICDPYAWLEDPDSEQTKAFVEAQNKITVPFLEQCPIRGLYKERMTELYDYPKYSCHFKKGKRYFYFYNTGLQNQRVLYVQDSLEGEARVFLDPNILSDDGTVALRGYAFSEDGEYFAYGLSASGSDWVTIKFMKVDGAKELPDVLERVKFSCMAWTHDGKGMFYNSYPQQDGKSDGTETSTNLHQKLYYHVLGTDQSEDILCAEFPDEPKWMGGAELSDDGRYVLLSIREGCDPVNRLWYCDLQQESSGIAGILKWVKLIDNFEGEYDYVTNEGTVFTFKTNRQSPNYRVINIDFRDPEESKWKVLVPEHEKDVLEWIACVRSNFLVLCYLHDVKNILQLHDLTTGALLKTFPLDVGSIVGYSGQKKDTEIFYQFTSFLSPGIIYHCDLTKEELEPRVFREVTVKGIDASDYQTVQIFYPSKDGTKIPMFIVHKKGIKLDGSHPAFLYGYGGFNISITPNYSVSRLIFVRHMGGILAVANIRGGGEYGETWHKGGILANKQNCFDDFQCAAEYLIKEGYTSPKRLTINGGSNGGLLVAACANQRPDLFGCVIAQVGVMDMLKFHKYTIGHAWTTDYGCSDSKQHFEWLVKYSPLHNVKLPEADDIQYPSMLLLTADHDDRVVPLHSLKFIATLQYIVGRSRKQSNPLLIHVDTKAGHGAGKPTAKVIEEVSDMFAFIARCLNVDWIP
Summary of the method: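 0.4 nM (final, example) recombinant PREP in pH 7.5 Tris buffer with EDTA, GSH, BSA and Brij-35; compounds at 1 nM to 30 μM. Reaction started with 50 μM Z-Gly-Pro-AMC and followed by fluorescence (ex 360/em 465 nm) at 32° C for 60 min. IC50 interpolated from percent activity based on initial slopes.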

Row | IC50 [nM] | SMILES
1 | 50 | O=C(C1CC(C(F)(F)F)Cc2nn(Cc3ccc(C(F)(F)F)nc3)c(=O)n21)N1CC(F)C(F)C1 (single isomer, unassigned) [Example 584]
2 | 0.73 | Cc1ccc(Cn2nc3n(c2=O)[C@H](C(=O)N2CCCC2)CCC3)cc1 [Example 26, (5S)-2-(4-Methylbenzyl)-5-(pyrrolidin-1-ylcarbonyl)-5,6,7,8-tetrahydro[1,2,4]triazolo[4,3-a]pyridin-3(2H)-one]
3 | 12 | O=C([C@@H]1CCc2nn(Cc3ccc(C(F)(F)F)nc3)c(=O)n21)N1CCCC1 [Example 50, (5S)-5-(Pyrrolidin-1-ylcarbonyl)-2-{[6-(trifluoromethyl)pyridin-3-yl]methyl}-2,5,6,7-tetrahydro-3H-pyrrolo[2,1-c][1,2,4]triazol-3-one]
4 | 0.89 | O=C([C@@H]1CCc2nn(Cc3ccc(F)c(Cl)c3)c(=O)n21)N1CCCC1 [Example 51, (5S)-2-(3-Chloro-4-fluorobenzyl)-5-(pyrrolidin-1-ylcarbonyl)-2,5,6,7-tetrahydro-3H-pyrrolo[2,1-c][1,2,4]triazol-3-one]
5 | 4.6 | O=C([C@@H]1CCc2nn(Cc3ccc(Cl)nc3)c(=O)n21)N1CCCC1 [Example 52, (5S)-2-[(6-Chloropyridin-3-yl)methyl]-5-(pyrrolidin-1-ylcarbonyl)-2,5,6,7-tetrahydro-3H-pyrrolo[2,1-c][1,2,4]triazol-3-one]
6 | 1.4 | O=C([C@@H]1CCc2nn(Cc3cccc(C(F)(F)F)c3)c(=O)n21)N1CCCC1 [Example 55, (5S)-5-(Pyrrolidin-1-ylcarbonyl)-2-[3-(trifluoromethyl)benzyl]-2,5,6,7-tetrahydro-3H-pyrrolo[2,1-c][1,2,4]triazol-3-one]
7 | 4.75 | O=C([C@@H]1CCCc2nn(Cc3ccnc(C(F)(F)F)c3)c(=O)n21)N1CCCC1 [Example 74, (5S)-5-(Pyrrolidin-1-ylcarbonyl)-2-{[2-(trifluoromethyl)pyridin-4-yl]methyl}-5,6,7,8-tetrahydro[1,2,4]triazolo[4,3-a]pyridin-3(2H)-one]
8 | 1.1 | O=C([C@@H]1CCCc2nn(Cc3ccnc(C(F)(F)F)c3F)c(=O)n21)N1CCCC1 [Example 75, (5S)-2-{[3-Fluoro-2-(trifluoromethyl)pyridin-4-yl]methyl}-5-(pyrrolidin-1-ylcarbonyl)-5,6,7,8-tetrahydro[1,2,4]triazolo[4,3-a]pyridin-3(2H)-one]
9 | 0.38 | O=C([C@@H]1CCCc2nn(Cc3cc(C(F)(F)F)nc4ccccc34)c(=O)n21)N1CCCC1 [Example 76, (5S)-5-(Pyrrolidin-1-ylcarbonyl)-2-{[2-(trifluoromethyl)quinolin-4-yl]methyl}-5,6,7,8-tetrahydro[1,2,4]triazolo[4,3-a]pyridin-3(2H)-one]
10 | 6 | O=C([C@@H]1CCCc2nn(Cc3cc(C(F)(F)F)ccn3)c(=O)n21)N1CCCC1 [Example 93, (5S)-5-(Pyrrolidin-1-ylcarbonyl)-2-{[4-(trifluoromethyl)pyridin-2-yl]methyl}-5,6,7,8-tetrahydro[1,2,4]triazolo[4,3-a]pyridin-3(2H)-one]
11 | 57 | O=C([C@@H]1CCCc2nn(Cc3ccnc(C(F)(F)F)n3)c(=O)n21)N1CCCC1 [Example 94, (5S)-5-(Pyrrolidin-1-ylcarbonyl)-2-{[2-(trifluoromethyl)pyrimidin-4-yl]methyl}-5,6,7,8-tetrahydro[1,2,4]triazolo[4,3-a]pyridin-3(2H)-one]
12 | 6.5 | O=C([C@@H]1CCCc2nn(Cc3ccc(F)c(Cl)c3)c(=O)n21)N1CC[C@H](O)C1 [Example 97, (5S)-2-(3-Chloro-4-fluorobenzyl)-5-{[(3S)-3-hydroxypyrrolidin-1-yl]carbonyl}-5,6,7,8-tetrahydro[1,2,4]triazolo[4,3-a]pyridin-3(2H)-one]
13 | 12.7 | O=C([C@@H]1CCCc2nn(Cc3cccc(C(F)(F)F)c3)c(=O)n21)N1CC[C@H](O)C1 [Example 99, (5S)-5-{[(3S)-3-Hydroxypyrrolidin-1-yl]carbonyl}-2-[3-(trifluoromethyl)benzyl]-5,6,7,8-tetrahydro[1,2,4]triazolo[4,3-a]pyridin-3(2H)-one]
14 | 0.25 | Cc1cc(C)c(Cn2nc3n(c2=O)[C@H](C(=O)N2CCCC2)CCC3)cc1C [Example 102, (5S)-5-(Pyrrolidin-1-ylcarbonyl)-2-(2,4,5-trimethylbenzyl)-5,6,7,8-tetrahydro[1,2,4]triazolo[4,3-a]pyridin-3(2H)-one]
15 | 1.7 | O=C([C@@H]1CCCc2nn(Cc3ncc(C(F)(F)F)cc3Cl)c(=O)n21)N1CCCC1 [Example 106, (5S)-2-{[3-Chloro-5-(trifluoromethyl)pyridin-2-yl]methyl}-5-(pyrrolidin-1-ylcarbonyl)-5,6,7,8-tetrahydro[1,2,4]triazolo[4,3-a]pyridin-3(2H)-one]
16 | 0.15 | Cc1ccc(Cn2nc3n(c2=O)[C@H](C(=O)N2CCSC2)CCC3)cc1 [Example 108, (5S)-2-(4-Methylbenzyl)-5-(1,3-thiazolidin-3-ylcarbonyl)-5,6,7,8-tetrahydro[1,2,4]triazolo[4,3-a]pyridin-3(2H)-one]
17 | 0.21 | Cc1ccc(Cn2nc3n(c2=O)[C@H](C(=O)N2CCC[C@H]2C#N)CCC3)cc1 [Example 109, (2S)-1-{[(5S)-2-(4-Methylbenzyl)-3-oxo-2,3,5,6,7,8-hexahydro[1,2,4]triazolo[4,3-a]pyridin-5-yl]carbonyl}pyrrolidine-2-carbonitrile]
18 | 0.32 | Cc1ccc(Cn2nc3n(c2=O)[C@H](C(=O)N2CC[C@H](F)C2)CCC3)cc1 [Example 110, (5S)-5-{[(3S)-3-Fluoropyrrolidin-1-yl]carbonyl}-2-(4-methylbenzyl)-5,6,7,8-tetrahydro[1,2,4]triazolo[4,3-a]pyridin-3(2H)-one]
19 | 0.41 | Cc1ccc(Cn2nc3n(c2=O)[C@H](C(=O)N2CC[C@@H](F)C2)CCC3)cc1 [Example 111, (5S)-5-{[(3R)-3-Fluoropyrrolidin-1-yl]carbonyl}-2-(4-methylbenzyl)-5,6,7,8-tetrahydro[1,2,4]triazolo[4,3-a]pyridin-3(2H)-one]
20 | 0.42 | Cc1ccc(Cn2nc3n(c2=O)[C@H](C(=O)N2CC(F)C2)CCC3)cc1 [Example 113, (5S)-5-[(3-Fluoroazetidin-1-yl)carbonyl]-2-(4-methylbenzyl)-5,6,7,8-tetrahydro[1,2,4]triazolo[4,3-a]pyridin-3(2H)-one]
21 | 10.2 | Cc1ccc(Cn2nc3n(c2=O)[C@H](C(=O)N2CC[C@@H](O)C2)CCC3)cc1 [Example 122, (5S)-5-{[(3R)-3-Hydroxypyrrolidin-1-yl]carbonyl}-2-(4-methylbenzyl)-5,6,7,8-tetrahydro[1,2,4]triazolo[4,3-a]pyridin-3(2H)-one]
22 | 43.5 | Cc1ccc(Cn2nc3n(c2=O)[C@H](C(=O)N2CCC[C@@H]2C)CCC3)cc1 [Example 127, 2-(4-Methylbenzyl)-(5S)-{[(2S)-2-methylpyrrolidin-1-yl]carbonyl}-5,6,7,8-tetrahydro[1,2,4]triazolo[4,3-a]pyridin-3(2H)-one]
23 | 50.5 | CO[C@H]1CCN(C(=O)[C@@H]2CCCc3nn(Cc4ccc(C)cc4)c(=O)n32)C1 [Example 130, (5S)-{[(3S)-3-Methoxypyrrolidin-1-yl]carbonyl}-2-(4-methylbenzyl)-5,6,7,8-tetrahydro[1,2,4]triazolo[4,3-a]pyridin-3(2H)-one]
24 | 141 | Cc1ccc(Cn2nc3n(c2=O)[C@H](C(=O)N2CCC[C@H]2C)CCC3)cc1 [Example 132, (5S)-2-(4-Methylbenzyl)-{[(2R)-2-methylpyrrolidin-1-yl]carbonyl}-5,6,7,8-tetrahydro[1,2,4]triazolo[4,3-a]pyridin-3(2H)-one]
25 | 16 | Cc1ccc(Cn2nc3n(c2=O)[C@H](C(=O)N2C[C@H](F)[C@@H](F)C2)CCC3)cc1 [Example 140, (5S)-5-{[(3S,4S)-3,4-Difluoropyrrolidin-1-yl]carbonyl}-2-(4-methylbenzyl)-5,6,7,8-tetrahydro[1,2,4]triazolo[4,3-a]pyridin-3(2H)-one]
26 | 13.1 | Cc1ccc(Cn2nc3n(c2=O)[C@H](C(=O)N2CC[C@H](C(F)F)C2)CCC3)cc1 [Example 143, (5S)-5-{[(3S)-3-(Difluoromethyl)pyrrolidin-1-yl]carbonyl}-2-(4-methylbenzyl)-5,6,7,8-tetrahydro[1,2,4]triazolo[4,3-a]pyridin-3(2H)-one]
27 | 12.7 | Cc1ccc(Cn2nc3n(c2=O)[C@H](C(=O)N2CC(F)(F)C(F)(F)C2)CCC3)cc1 [Example 145, (5S)-2-(4-Methylbenzyl)-5-[(3,3,4,4-tetrafluoropyrrolidin-1-yl)carbonyl]-5,6,7,8-tetrahydro[1,2,4]triazolo[4,3-a]pyridin-3(2H)-one]
